Results on one molecule are retold here after paper PMC7016953 (Cells, 2020).

Experiment [1] relates to T1, TRPC3.
T1 construct: expressed in transfected cells
The experiment in a line: Microfluorometric single-cell [Ca2+]i analysis, fura-2-loaded HEK cells stably expressing TRPC3. It counts as cell-based, human. The conditions noted are these: 50 µM. The procedure: The microfluorometric single-cell [Ca^2+]i analysis was performed on an inverted epifluorescence microscope (Carl Zeiss, Jena, Germany) and calibrated as described. Cells were grown on 25 mm coverslips and loaded with 4 µM fura-2/AM (AAT Bioquest, Sunnyvale, CA, U.S.A.) in HBS containing 0.2% BSA for 30 min at 37 °C. After gently rinsing the coverslips with HBS, coverslips were mounted in a bath chamber and superfused with HBS containing 0.035% BSA.
Figure 2 Microfluorometric single-cell analysis of artemisinin-induced increases in [Ca^2+]i in fura-2-loaded HEK cells stably expressing TRPC3 (A), TRPC6 (B), or TRPC7 (C). […] Experiments were performed either in standard bath solution, containing 1 mM Ca^2+ (black lines and bars), or in a nominally Ca^2+-free HBS buffer, supplemented with 200 µM EGTA (grey lines and bars). Time courses of averaged responses (left), and statistical analysis of 6–11 independent imaging experiments with means and S.D. (right) are shown. Significant differences (p < 0.05, Student´s t-test with paired data: #, with unpaired data: *) are marked for the indicated comparisons; n.s.: difference is statistically not significant.

Experiment [2] has as its system parental HEK293 cells. The experiment in a line: [Ca2+]i response in un-transfected parental HEK293 cells. The experiment is classed as cell-based, human. Here is the method: All fluorometric Ca^2+ assays were done in (4-(2-hydroxyethyl)-1-piperazineethanesulfonic acid) (HEPES)-buffered saline (HBS), containing 132 mM NaCl, 6 mM KCl, 1 mM MgCl2, 1 mM CaCl2, 5.5 mM D-glucose, 10 mM HEPES, and 0.035% bovine serum albumin (BSA) adjusted to pH 7.4 with NaOH. For measurements in Ca^2+-free bath solutions, a modified HBS without CaCl2 was supplemented with 200 µM ethylene glycol-bis(β-aminoethyl ether)-N,N,N′,N′-tetraacetic acid (EGTA).
The primary compound screen and the generation of concentration response curves in HEK293 cells or in PC12 cells were performed by using a custom-made fluorescence plate imager built into a robotic liquid handling station equipped with a 96-tip multichannel head (Freedom Evo 150, Tecan, Männedorf, Switzerland) as described previously. To this end, trypsinized cell suspensions were loaded with 4 µM fluo-4/AM (Invitrogen, Thermo Fisher Scientific, Waltham, MA, U.S.A.) in cell culture medium for 30 min at 37 °C. After brief centrifugation, cells were resuspended in HBS and dispensed into black pigmented, clear-bottom 384-well plates (Greiner µClear, Frickenhausen, Germany). Plates were mounted on the imager, and fluorescence signals were recorded with a cooled Zyla 5.5 camera (Andor, Belfast, UK) through a 515 nm long pass filter. The image acquisition was controlled by the µManager software (http://micro-manager.org), and excitation with a LED array (470 nm) was synchronized by the camera trigger output. After baseline recording for about 60 s, the compound libraries or serial dilutions of activators or inhibitors were added to the cells by the liquid handling device. When inhibitory potencies were evaluated, a second pipetting step with the respective reference agonist was performed. Fluorescence intensities were calculated from image stacks for each well with ImageJ (National Institutes of Health, Bethesda, MD, U.S.A.), corrected for background signals, and normalized to the initial intensities (F/F0). […]

The test system of experiment [3] is T2, hTRPC7-YFP.
T2 construct: expressed in transfected cells
The experiment in a line: Fluo-4 Ca2+ influx assay in HEK293 cells stably expressing TRPC7. As to conditions: fluo-4 concentration response analysis. It counts as cell-based, human.

For experiment [4], the system named is T3, mTRPV4-YFP.
T3 construct: expressed in transfected cells
Kind of experiment: Selectivity profiling, fluo-4 [Ca2+]i response, TRPV4. It counts as cell-based, mouse. As to conditions: 100 µM. The procedure: (§1) Human embryonic kidney 293 (HEK293) cells were stably transfected with expression plasmids that encode hTRPC3-YFP, hTRPC6-YFP, hTRPC7-YFP, mTRPC4ß-YFP, rTRPV1-CFP, rTRPV2-YFP, rTRPV3-YFP, mTRPV4-YFP, or hTRPM2 as previously described. Cell lines were cultured in Earle’s minimum essential medium (MEM; Sigma, Munich, Germany), supplemented with 10% fetal calf serum (Gibco Thermo Fisher Scientific, Darmstadt, Germany), 2 mM L-glutamine, and required concentrations of geneticin in a range of 0.4–1 mg/mL. A HEK293mTRPC5-YFP cell line was maintained and induced as described before. […] For electrophysiological and single cell [Ca^2+]i imaging experiments, PC12 cells were plated onto 25 mm poly-L-lysine-coated glass coverslips and measured 24–48 h after seeding. […]
(§2) The primary compound screen and the generation of concentration response curves in HEK293 cells or in PC12 cells were performed by using a custom-made fluorescence plate imager built into a robotic liquid handling station equipped with a 96-tip multichannel head (Freedom Evo 150, Tecan, Männedorf, Switzerland) as described previously. […] Plates were mounted on the imager, and fluorescence signals were recorded with a cooled Zyla 5.5 camera (Andor, Belfast, UK) through a 515 nm long pass filter. […] When inhibitory potencies were evaluated, a second pipetting step with the respective reference agonist was performed. […]

Experiment [5] relates to T4, rTRPV3-YFP.
T4 construct: expressed in transfected cells
The experiment in a line: Selectivity profiling, fluo-4 [Ca2+]i response, TRPV3. The experiment is classed as cell-based, rat. The conditions noted are these: 100 µM. Here is the method: as §1, §2

The test system of experiment [6] is TRPC4, TRPC5, TRPA1, TRPM2, TRPM3, TRPM8, TRPV1, TRPV2, TRPV4, or TRPV4. The experiment in a line: Selectivity profiling, inhibition of activator responses in the TRP channel panel. It counts as cell-based. The conditions noted are these: 100 µM, subsequent stimulation with channel-specific activators. The procedure:
as §1, §2

With `C[C@@H]1CC[C@H]2[C@@H](C)C(=O)O[C@@H]3O[C@@]4(C)CC[C@@H]1[C@]32OO4` [artemisinin], in experiment [1] (nominally Ca2+-free HBS with 200 µM EGTA), the “[Ca2+]i signal in TRPC3-expressing cells in Ca2+-free bath” value is recorded as “abolished”. Also, the “[Ca2+]i response in TRPC3-overexpressing HEK cells” value in experiment [1] (standard bath 1 mM Ca2+) is listed as “confirmed the responses”. In addition, the “response of un-transfected parental HEK293 cells” value in experiment [2] (concentrations up to 50 µM) is reported as “no response”. Further, in experiment [2] (single-cell analysis, followed by carbachol), the “[Ca2+]i signals in parental HEK293 cells” value was “does not induce [Ca^2+]i signals”. Moreover, in experiment [3], the “effect on TRPC7” value was “weakly activated”. For the same molecule, the “[Ca2+]i response, TRPV4” value in experiment [4] is given as “none of the cell lines responded”. Moreover, the “[Ca2+]i response, TRPV3” value in experiment [5] was “none of the cell lines responded”. Moreover, in experiment [6], the “inhibition of the investigated channels compared to the solvent control” value is listed as “did not observe a significant inhibition”.
